# Data reported in US20140301961A1, “COMPOUNDS WITH ANTI-AGING ACTIVITIES” (priority 2011, published 2014).
# Tests used:
# VEGF = assay: Inflammation induced VEGF synthesis in cultured dermal fibroblasts; type: cell-based, human; details: inflammatory inducer PMA (FIG. 10)
# Experimental: (§1) MMP-inhibitory activity for compounds of the invention was also assessed on human dermal fibroblasts. Dermal fibroblasts were cultured in Dulbecco's Modified Eagle Medium (DMEM) (Invitrogen) with 10% EBS (ex. Invitrogen) and 1% Pencillin/Streptavidin (ex. Invitrogen). To induce inflammation in the cells, PMA (phorbol myristate acetate) (ex. Sigma) was used at a concentration of 10 nM. […] The cells were stimulated for 24 h and the culture supernatant was collected and stored at −20° C. until further analysis.
# Fluorokine MultiAnalyte Profiling (xMAP) using the BioPlex (ex. Biorad) dual laser flow-based sorting and detection analyzers manufactured by Luminex corporation (Luminex, Austin, Tex.) was employed to measure levels of MMP in conditioned media samples of stimulated dermal fibroblasts. The technology incorporated polystyrene microspheres dyed internally with differing ratios of two spectrally distinct fluorophores to create a family of different spectrally addressed bead sets. The bead utilized in this study was conjugated with a biotinylated capture antibody specific for a unique MMPs, The assay was performed without antecedent serum depletion. Results were compared with medium from cells treated with vehicle only (DMSO). The assays utilized a 96-well microplate format and were processed according to the manufacturer's protocol, including generation of a standard curve for each target prepared in background assay diluents. Values that fell within the linear range of the calibration assay were accepted. Samples were analyzed using the Bio-Plex suspension array system and Bio-Plex Manager software 4.0 (Bio-Rad Laboratories, Hercules, Calif.). Quantities were determined by comparison to standard curves obtained for the different MMP.
# Cell culture and cytokine analysis was carried out on human dermal fibroblasts as described in Example 3.1. The methodology was adapted in order analyze VEGF production.
# GM-CSF [1] = assay: GM-CSF production in PMA-stimulated human dermal fibroblasts; type: cell-based; details: PMA 10 nM (FIG. 8)
# Experimental: Cell Cultures were Prepared According to Example 3.1
# To induce inflammation in the cells PMA (phorbol myristate acetate) (ex. Sigma) was used at a concentration of 10 nM. […] The cells were stimulated for 24 h and the culture supernatant was collected and stored at −20° C. until further analysis.
# Experimental method as outlined in Example 3.1 was modified in order to analyze GM-CSGF levels in human dermals fibroblasts stimulated with all-trans retinoic acid, retinol, arachidonic acid, β-aescin, and […] (ethyl ester) at a range of concentrations. Experiments were performed in duplicates.
# GM-CSF [2] = assay: UV-induced GM-CSF expression in skin explants; type: cell-based, human; details: topical 1% w/w solution in propylene glycol, 120 mJ/cm^2 UVA and UVB (FIG. 9)
# Experimental: Full thickness skin from surgical waste material from breast reductions was collected. Subcutaneous fat was removed with a scalpel. 8 mm punch biopsies was taken from the skin and referred to as skin explants. Thereafter, the explants were put on Millipore cell culture inserts (12 mm in diameter). Inserts containing skin explants were put in 6-well plate (1 insert/well) and 1 mL of supplemented keratinocyte medium (Cascade Biologics) was added to each well to allow survival and nutrition of the explants. […] Supernatants were thereafter collected and analyzed for GM-CSF production.
# pro-collagen type 1 = assay: Pro-collagen 1 ELISA in dermal fibroblasts; type: cell-based, human; details: 24 hour stimulation, 3 donors (FIG. 5)
# Experimental: as §1
# Fibroblast cells were cultured as outlined in Example 3.1 and treated with compounds of the invention The secretion of pro-collagen in the cell culture supernatants were analyzed using Pro-Collagen 1 specific ELISA (#8003; ex. Quidel). Results were compared with cell culture supernatants from DMSO vehicle treated cells. The assays utilized a 96-well microplate format and were processed according to the manufacturer's protocol, including generation of a standard curve prepared in background assay diluents. Absorbance of the assay dye was read at a Synergy HT plate reader. Values that fell within the linear range of the calibration assay were accepted. Quantities were determined by comparison to standard curve obtained for pro-collagen 1.
# [3] = test system: hydroxysteroid (17-beta) dehydrogenase 2 (HSD17B2); assay: Affymetrix gene array on skin explants, HSD17B2; type: cell-based, human; details: topical, 24 hours
# Source text: (§2) Subcutaneous fat from full thickness skin, obtained from surgical waste material from breast reduction procedures, was removed with a scalpel. Three healthy Caucasian female donors were used for this study. The female donors differed from those of the skin-treatment study outlined previously 8 mm punch biopsies were taken from the skin (and these biopsies are now referred to as skin explants). Skin explants were put on Milipore cell culture inserts (12 mm diameter). Inserts containing skin explants were put in 6-well plates (one insert/well) and 1 mL of supplemented keratinocyte medium (ex Cascade Biologics) was added to each well. A tretinoin-containing cream (Aberela® ex. Janssen): 0.05% tretinoin in the cream, was applied topically to each explant (5 μL/cm^2) using a positive displacement pipette. A placebo cream without tretinoin was used as a control. The skin explants were incubated with tretinoin for 24 hours at 37° C. in 5% CO2-humidified air.
# (§3) RNA concentration was measured with ND-1000 spectrophotometer (ex. NanoDrop Technologies) and RNA quality was evaluated using the Agilent 2100 bioanalyzer system (ex. Agilent Technologies). 250 nanograms of total RNA from each skin or skin explant sample was used to prepare biotinylated fragmented cRNA according to the GeneChip® 3′IVT Express Kit Manual (PN702646 Rev 1, ex. Affymetrix Inc.). Affymetrix GeneChip® expression arrays (Human Genome U133 Plus 2.0) were hybridized for 16 hours in a 45° C. incubator, rotated at 60 rpm. According to the GeneChip Expression Wash, Stain and Scan Manual (PN 702731 Rev 2, ex. Affymetrix Inc.) the arrays were washed and stained using the Fluidics Station 450 and scanned using the GeneChip® Scanner 3000 7G.
# (§4) Analysis of the gene expression data was carried out in the statistical computing language R (http://www.r-project.org) using packages available from the Bioconductor project (www.bioconductor.org). The raw data was normalized using the robust multi-array average (RMA) method. In order to search for differentially expressed genes between the X samples and the Y samples group an empirical Bayes moderated t-test was then applied using the ‘limma’ package.
# (§5) Skin explants were obtained as detailed in Example 3.1.
# [4] = test system: tachykinin, precursor 1 (TAC1); assay: Affymetrix gene array on skin explants, TAC1; type: cell-based, human; details: topical, 24 hours
# Source text: as §2, §3, §4, §5
Structure (SMILES),inflammatory induced VEGF synthesis (VEGF),GM-CSF production (GM-CSF [1]),UV-induced expression of GM-CSF (GM-CSF [2]),production of pro-collagen type 1 (pro-collagen type 1),HSD17B2 gene expression [3] [log 2−ratio],TAC1 gene expression [4] [log 2−ratio]
"C=C1C[C@]23C[C@@]1(O)CC[C@H]2[C@@]12C=C[C@H](O)[C@@](C)(C(=O)O1)[C@@H]2[C@@H]3C(=O)O [Gibberellic acid, (3S,3aS,4S,4aS,7S,9aR,9bR,12S)-7,12-dihydroxy-3-methyl-6-methylene-2-oxoperhydro-4a,7-methano-9b,3-propenoazuleno[1,2-b]furan-4-carboxylic acid]",reduce inflammatory induced VEGF synthesis,inhibition of GM-CSF production,suppression of UV-induced expression of GM-CSF,significantly increase,−0.52,−0.62
"CC(=O)N[C@@H](CC(=O)O)C(=O)O [N-Acetyl aspartic acid, (2S)-2-Acetamidobutanedioic acid]",reduce inflammatory induced VEGF synthesis,inhibition of GM-CSF production,suppression of UV-induced expression of GM-CSF,significantly increase,−1.46,−1.23
"O=C1C[C@@H](c2ccc(O)cc2)Oc2cc(O)cc(O)c21 [Naringenin, (S)-2,3-Dihydro-5,7-dihydroxy-2-(4-hydroxyphenyl)-4H-1-benzopyran-4-one]",reduce inflammatory induced VEGF synthesis,inhibition of GM-CSF production,suppression of UV-induced expression of GM-CSF,convincing trend towards increasing,−0.83,−2.78
